{"source": "paper PMC3184254", "about": "(Nature Chemical Biology, 2011)", "target": "T1, G9a (Homo sapiens, UniProt Q96KQ7)", "T1 sequence (Q96KQ7 1-1210)": "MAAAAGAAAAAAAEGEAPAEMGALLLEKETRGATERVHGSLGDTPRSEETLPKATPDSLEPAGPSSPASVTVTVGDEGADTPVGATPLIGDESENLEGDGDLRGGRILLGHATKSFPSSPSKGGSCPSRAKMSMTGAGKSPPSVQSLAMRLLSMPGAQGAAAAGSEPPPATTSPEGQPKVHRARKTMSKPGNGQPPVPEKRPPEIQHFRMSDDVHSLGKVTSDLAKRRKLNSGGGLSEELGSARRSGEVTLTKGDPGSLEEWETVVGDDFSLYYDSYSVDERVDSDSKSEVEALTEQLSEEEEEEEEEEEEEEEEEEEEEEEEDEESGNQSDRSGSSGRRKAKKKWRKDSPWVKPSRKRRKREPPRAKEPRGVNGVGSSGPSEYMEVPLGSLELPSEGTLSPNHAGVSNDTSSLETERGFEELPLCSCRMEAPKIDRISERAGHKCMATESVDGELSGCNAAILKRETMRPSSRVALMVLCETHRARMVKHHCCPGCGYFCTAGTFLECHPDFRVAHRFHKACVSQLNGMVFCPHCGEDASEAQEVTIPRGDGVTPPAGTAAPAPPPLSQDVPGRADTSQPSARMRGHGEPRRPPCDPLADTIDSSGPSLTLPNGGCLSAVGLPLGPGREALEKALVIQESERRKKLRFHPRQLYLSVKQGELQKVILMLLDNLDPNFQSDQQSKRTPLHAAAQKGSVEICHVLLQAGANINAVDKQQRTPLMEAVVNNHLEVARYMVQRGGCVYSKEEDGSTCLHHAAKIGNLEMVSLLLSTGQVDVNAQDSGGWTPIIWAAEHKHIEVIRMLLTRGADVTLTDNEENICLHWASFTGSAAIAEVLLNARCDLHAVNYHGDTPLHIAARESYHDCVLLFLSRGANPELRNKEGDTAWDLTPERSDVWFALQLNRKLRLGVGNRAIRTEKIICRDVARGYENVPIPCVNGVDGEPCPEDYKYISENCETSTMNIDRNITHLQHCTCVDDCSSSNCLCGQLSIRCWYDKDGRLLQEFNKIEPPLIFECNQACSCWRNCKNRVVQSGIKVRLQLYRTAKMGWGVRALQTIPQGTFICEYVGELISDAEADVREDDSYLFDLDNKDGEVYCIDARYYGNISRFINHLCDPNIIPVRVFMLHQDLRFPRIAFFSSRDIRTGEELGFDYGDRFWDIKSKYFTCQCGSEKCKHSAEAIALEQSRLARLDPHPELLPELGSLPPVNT", "assay": "Surface plasmon resonance", "assay_type": "binding", "settings": "SPR", "data": [{"smiles": "COc1cc2c(NC3CCN(C(C)C)CC3)nc(C3CCCCC3)nc2cc1OCCCN1CCCC1", "note": "[UNC0638]", "values": [{"measurement": "disassociation rate (kd)", "result": 0.057, "unit": "s⁻¹"}]}]}
